The supplement of paper PMC10307832

Legend:
Assay in all cases: relative viability (nuclei count vs DMSO), 5 days (fraction); higher = more cells survive
Adavosertib + Trametinib = compound: C=CCn1c(=O)c2cnc(Nc3ccc(N4CCN(C)CC4)cc3)nc2n1-c1cccc(C(C)(C)O)n1 [Adavosertib] + CC(=O)Nc1cccc(-n2c(=O)n(C3CC3)c(=O)c3c(Nc4ccc(I)cc4F)n(C)c(=O)c(C)c32)c1 [Trametinib] (partner 0.02 µM)
Method in brief: (§1)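 Lung cancer cell lines, seeded in 1536-well plates, were treated the following day by pin tool with a single drug or with five library-drug doses (not always all listed) in √10 steps on top of a fixed anchor-drug dose. Cells were fixed and nuclei stained in one step after 5 days, and nuclei were counted. Relative viability is the nuclei count for treated wells divided by that for vehicle wells, reported as medians of duplicate plates.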

Nelarabine + Navitoclax = compound: COc1nc(N)nc2c1ncn2[C@@H]1O[C@H](CO)[C@@H](O)[C@@H]1O [Nelarabine] + CC1(C)CCC(c2ccc(Cl)cc2)=C(CN2CCN(c3ccc(C(=O)NS(=O)(=O)c4ccc(N[C@H](CCN5CCOCC5)CSc5ccccc5)c(S(=O)(=O)C(F)(F)F)c4)cc3)CC2)C1 [Navitoclax] (partner 0.5 µM)
Method in brief: as §1

Nelarabine = compound: COc1nc(N)nc2c1ncn2[C@@H]1O[C@H](CO)[C@@H](O)[C@@H]1O [Nelarabine]
Method in brief: (§2)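 Viability was read as treated-well nuclei divided by vehicle-well nuclei, using the median across plates. Lung cancer cell lines in 1536-well plates were kept overnight at 37 °C, pinned with five √10-spaced library-drug doses, and after 5 days were Hoechst-stained, imaged at 4× and counted in MetaXpress. Plates passed only with control CV below 25% and at least one doubling.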

Adavosertib = compound: C=CCn1c(=O)c2cnc(Nc3ccc(N4CCN(C)CC4)cc3)nc2n1-c1cccc(C(C)(C)O)n1 [Adavosertib]
Method in brief: as §2

Cell Line	relative viability (Adavosertib + Trametinib; first compound 0.01 µM)	relative viability (Adavosertib + Trametinib; first compound 0.03162 µM)	relative viability (Adavosertib + Trametinib; first compound 0.1 µM)	relative viability (Adavosertib + Trametinib; first compound 0.3162 µM)	relative viability (Nelarabine + Navitoclax; first compound 0.01 µM)	relative viability (Nelarabine + Navitoclax; first compound 0.03162 µM)	relative viability (Nelarabine + Navitoclax; first compound 0.1 µM)	relative viability (Nelarabine + Navitoclax; first compound 0.3162 µM)	relative viability (Nelarabine + Navitoclax; first compound 1 µM)	relative viability (Nelarabine; 0.01 µM)	relative viability (Nelarabine; 0.03162 µM)	relative viability (Nelarabine; 0.1 µM)	relative viability (Nelarabine; 0.3162 µM)	relative viability (Nelarabine; 1 µM)	relative viability (Adavosertib; 0.01 µM)	relative viability (Adavosertib; 0.03162 µM)	relative viability (Adavosertib; 0.1 µM)	relative viability (Adavosertib; 0.3162 µM)
NCI-H2087	0.217	0.204	0.207	0.2	1.02	0.944	0.971	0.9	0.979	1.1	0.981	1.05	1.22	0.881	0.968	0.95	1.08	1.13
NCI-H2405	–	0.63	0.721	0.671	1	0.902	0.687	0.744	0.84	1.07	1.02	0.924	0.982	0.947	0.924	0.993	1.02	1.04
NCI-H1915	0.329	0.338	0.322	0.33	0.799	0.687	0.767	0.805	0.796	1.15	1.03	1.02	1	1.05	0.999	1.01	1.06	0.996
NCI-H1395	1.06	1.12	1.08	0.864	1.18	1.16	1.28	1.19	1.17	0.997	0.821	1.02	0.928	0.842	0.83	0.901	0.887	0.775
LOU-NH91	0.773	0.799	0.828	0.774	0.786	0.588	0.616	0.632	0.69	0.948	0.944	0.935	1.02	0.956	0.956	0.992	0.974	0.918
SW 1573	0.525	0.564	0.605	0.638	1.14	1.26	1.02	0.98	1.03	1.13	1.04	0.995	1.05	0.979	0.99	1.03	1.14	0.965
NCI-H23	0.363	0.395	0.339	0.226	0.804	0.821	0.783	0.854	0.763	1.22	0.911	1.01	0.987	0.96	0.925	0.98	0.659	0.313
NCI-H1993	0.42	0.449	0.535	0.561	1.14	0.783	0.982	1.02	0.956	1.03	0.863	1.02	0.959	0.987	0.9	0.996	0.925	1.1
HARA	0.696	0.729	0.75	0.611	1.17	1.08	1.07	1.22	1.06	1.2	1.14	0.97	1.06	1.01	0.929	1.04	1.01	0.897
HCC-366	0.387	0.353	0.352	0.344	1.55	1.03	1.22	1.2	1	1.28	0.865	0.982	1.08	1.02	1.04	1.05	0.998	1.01
COR-L 105	0.436	0.463	0.48	0.347	0.936	0.956	0.733	0.819	0.795	1.01	1.12	0.971	0.842	1.04	0.865	0.885	0.807	0.747
HCC-44	1.08	1.05	1.19	1.12	1.27	1.09	0.985	1.05	0.966	1	0.949	0.997	0.947	0.867	0.927	0.987	0.971	0.984
LXF-289	0.746	0.696	0.701	0.678	1.12	0.882	0.98	1	0.908	1.11	1.04	1.01	1.05	0.995	1.02	0.988	1.01	1.04
NCI-H727	0.427	0.383	0.396	0.385	0.496	0.384	0.376	0.424	0.377	1.22	0.891	0.856	0.97	0.896	0.961	0.898	1.03	0.936
NCI-H2085	0.544	0.568	0.435	0.524	1.08	1.08	1.18	1.18	1.18	1	1.04	0.963	0.995	0.958	0.991	1.01	1	1.03
A-427	0.771	0.808	0.805	0.565	1.05	1.02	0.916	0.897	0.912	1.06	1.08	1.04	1.05	0.938	1.02	1.02	1.05	0.894
LC-2-ad	0.865	0.908	0.914	1.04	0.619	0.384	0.519	0.434	0.452	1.14	1.05	0.984	1.05	0.989	0.979	1.02	1.01	1.13
